Experimental findings from PubChem BioAssay AID264 (DTP/NCI, 2004) are described below.

In this assay the test system is nude mice, LX-1 lung xenograft intrarenal, tumor weight T/C. Briefly: NCI In Vivo Anticancer Drug Screen. Data for tumor model Human Lung LX-1 Xenograft (intrarenal inoculation) in NU/NU Swiss (nude) mice. The conditions noted are these: endpoint: mean tumor weight change, higher = larger tumour. The essentials: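 In vivo, transplantable tumor; compound vs vehicle arms; tumor size measured; value = T/C.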
In general terms: In xenograft studies the graft and the host belong to different species.

The mark [1] stands for this setting: dose: 300.0 mg/kg/injection, schedule: Q04DX003 (sc), vehicle: Klucel (hydroxypropylcellulose) (HPC).
[2] abbreviates: dose: 600.0 mg/kg/injection, schedule: Q04DX003 (sc), vehicle: Klucel (hydroxypropylcellulose) (HPC).
[3] abbreviates: dose: 1200.0 mg/kg/injection, schedule: Q04DX003 (sc), vehicle: Klucel (hydroxypropylcellulose) (HPC).
Where [4] appears, read: dose: 300.0 mg/kg/injection, schedule: Q04DX003 (sc), vehicle: saline with Tween-80.
Setting [5] is: dose: 600.0 mg/kg/injection, schedule: Q04DX003 (sc), vehicle: saline with Tween-80.
Where [6] appears, read: dose: 1200.0 mg/kg/injection, schedule: Q04DX003 (sc), vehicle: saline with Tween-80.
[7] abbreviates: dose: 100.0 mg/kg/injection, schedule: Q04DX003 (sc), vehicle: suspension in saline.
Where [8] appears, read: dose: 200.0 mg/kg/injection, schedule: Q04DX003 (sc), vehicle: suspension in saline.

Several values for one entry are separate records, joined by “and”; a condition that tells them apart may be missing. Equal entries are not always repeated. Records with an inconclusive call do not appear.

As for `O/N=C/c1ccccc1O.O/N=C/c1ccccc1O.[Cu]`, the T/C is 72 % of control (dose: 100.0 mg/kg/injection, schedule: Q04DX003 (sc), vehicle: saline with Tween-80); 67 % of control and 72 % of control (dose: 200.0 mg/kg/injection, schedule: Q04DX003 (sc), vehicle: saline with Tween-80); 93 % of control (dose: 400.0 mg/kg/injection, schedule: Q04DX003 (sc), vehicle: saline with Tween-80).
For the compound `COc1cc2cc(c1Cl)N(C)C(=O)CC(OC(=O)CC(C)C)C1(C)OC1C(C)C1CC(O)(NC(=O)O1)C(OC)/C=C/C=C(C)C2` (stereo not drawn), the T/C is, setting by setting: (dose: 12.5 micrograms/kg/injection, schedule: Q01DX010 (sc), vehicle: saline + alcohol) 73 % of control; (dose: 25.0 micrograms/kg/injection, schedule: Q01DX010 (sc), vehicle: saline + alcohol) 59 % of control; (dose: 50.0 micrograms/kg/injection, schedule: Q01DX010 (sc), vehicle: saline + alcohol) 107 % of control.
Take `O=C(O)C1(C(=O)O)CCC1.[NH2-].[NH2-].[Pt+2]`: the T/C is, setting by setting: (dose: 6.25 mg/kg/injection, schedule: Q01DX010 (sc), vehicle: dextrose) 73 % of control; (dose: 12.5 mg/kg/injection, schedule: Q01DX010 (sc), vehicle: dextrose) 88 % of control; (dose: 25.0 mg/kg/injection, schedule: Q01DX010 (sc), vehicle: dextrose) 68 % of control.
In the case of `CCc1c(CC(=O)O)c2cc(C)ccc2n1Cc1ccc(Cl)cc1`, the T/C reads like this: under setting [1], 123 % of control; under setting [2], 82 % of control; under setting [3], 92 % of control; (dose: 2400.0 mg/kg/injection, schedule: Q04DX003 (sc), vehicle: Klucel (hydroxypropylcellulose) (HPC)) 50 % of control.
Turning to `Cc1cc(NCCCN(C)C)c2ccc3c(ccc4c(NCCCN(C)C)cc(C)nc43)c2n1`, the T/C is 86 % of control (dose: 9.38 mg/kg/injection, schedule: Q04DX003 (sc), vehicle: saline with Tween-80) and 82 % of control (dose: 18.75 mg/kg/injection, schedule: Q04DX003 (sc), vehicle: saline with Tween-80).
On to `CCOC(=O)C1(c2ccccc2)C(=O)Oc2ccccc21` (stereo not drawn), for which the T/C under setting [4] was 54 % of control; the T/C under setting [5] was 103 % of control; the T/C under setting [6] was 73 % of control; the T/C (dose: 2400.0 mg/kg/injection, schedule: Q04DX003 (sc), vehicle: saline with Tween-80) was 74 % of control.
With `O=[N+]([O-])c1nccn1CC(O)CO` (stereo not drawn), the T/C is, setting by setting: (dose: 600.0 mg/kg/injection, schedule: Q04DX003 (sc), vehicle: saline) 91 % of control; (dose: 1200.0 mg/kg/injection, schedule: Q04DX003 (sc), vehicle: saline) 78 % of control; (dose: 2400.0 mg/kg/injection, schedule: Q04DX003 (sc), vehicle: saline) 108 % of control.
With `O=P1(N(CCCl)CCCl)NCCCO1` (stereo not drawn), the T/C is 76 % of control (dose: 3.13 mg/kg/injection, schedule: Q01DX010 (sc), vehicle: saline); 48 % of control (dose: 6.25 mg/kg/injection, schedule: Q01DX010 (ip), vehicle: saline); 85 % of control (dose: 6.25 mg/kg/injection, schedule: Q01DX010 (sc), vehicle: saline); 29 % of control (dose: 12.5 mg/kg/injection, schedule: Q01DX010 (ip), vehicle: saline); 151 % of control (dose: 20.8 mg/kg/injection, schedule: Q04DX003 (ip), vehicle: saline); 56 % of control (dose: 25.0 mg/kg/injection, schedule: Q01DX010 (ip), vehicle: saline). For the same compound, the T/C reads like this: (dose: 41.66 mg/kg/injection, schedule: Q04DX003 (ip), vehicle: saline) 51 % of control; (dose: 41.66 mg/kg/injection, schedule: Q04DX003 (sc), vehicle: saline) 44 % of control; (dose: 50.0 mg/kg/injection, schedule: Q04DX003 (sc), vehicle: suspension in saline) 87 % of control and 92 % of control; (dose: 83.33 mg/kg/injection, schedule: Q04DX003 (sc), vehicle: saline) 20 % of control; (dose: 100.0 mg/kg/injection, schedule: Q04DX003 (sc), vehicle: saline) 28 % of control; under setting [7], 70 % of control and 90 % of control. Besides, the T/C is 13 % of control (dose: 200.0 mg/kg/injection, schedule: Q04DX003 (sc), vehicle: saline) and 42 % of control under setting [8].
On to `COc1ccc(CC2C(=O)NC(C)C(=O)N(C)C3C(=O)N(C)C(Cc4ccc(O)c(c4)Oc4ccc(cc4)C3O)C(=O)NC(C)C(=O)NC(C)C(=O)N2C)cc1` (stereo not drawn), for which the T/C runs as follows: (dose: 0.5 mg/kg/injection, schedule: Q01DX010 (sc), vehicle: saline with Tween-80) 69 % of control; (dose: 1.0 mg/kg/injection, schedule: Q01DX010 (sc), vehicle: saline with Tween-80) 85 % of control; (dose: 2.0 mg/kg/injection, schedule: Q01DX010 (sc), vehicle: saline with Tween-80) 96 % of control; (dose: 4.0 mg/kg/injection, schedule: Q01DX010 (sc), vehicle: saline with Tween-80) 40 % of control.
For `CC[C@@]1(O)C(=O)OCc2c1cc1n(c2=O)Cc2cc3cc(O)ccc3nc2-1`, for the setting “dose: 32.0 mg/kg/injection, schedule: Q04DX003 (sc), vehicle: suspension in saline”, the T/C was 12 % of control and 14 % of control.
In the case of `CCC[CH2][Hg][Cl]`, the T/C runs as follows: (dose: 18.75 mg/kg/injection, schedule: Q04DX003 (sc), vehicle: Klucel (hydroxypropylcellulose) (HPC)) 69 % of control; (dose: 37.5 mg/kg/injection, schedule: Q04DX003 (sc), vehicle: Klucel (hydroxypropylcellulose) (HPC)) 53 % of control.
`O=C1CN(CN2CCOCC2)C(=O)CN1CN1CCOCC1`: the T/C reads like this: (dose: 50.0 mg/kg/injection, schedule: Q01DX010 (sc), vehicle: suspension in saline) 116 % of control; (dose: 200.0 mg/kg/injection, schedule: Q01DX010 (sc), vehicle: suspension in saline) 156 % of control.
As to `CC1=CC(=NN=c2cc(C)n([O-])c(C)c2)C=C(C)[N+]1=O`, the T/C reads like this: (dose: 300.0 mg/kg/injection, schedule: Q04DX003 (sc), vehicle: suspension in saline) 96 % of control; (dose: 1200.0 mg/kg/injection, schedule: Q04DX003 (sc), vehicle: suspension in saline) 77 % of control.
Consider `Nc1ccc(Cl)cc1N`, for which the T/C (dose: 450.0 mg/kg/injection, schedule: Q04DX003 (sc), vehicle: saline with Tween-80) was 115 % of control and the T/C (dose: 900.0 mg/kg/injection, schedule: Q04DX003 (sc), vehicle: saline with Tween-80) is 92 % of control.
For `O=NN(CCCl)C(=O)Oc1cc(Cl)c(Cl)cc1Cl`, the T/C under setting [1] was 104 % of control, the T/C under setting [2] was 53 % of control and the T/C under setting [3] was 29 % of control.
Consider `COc1ccc([I+]c2cccc(Cl)c2)cc1Cl`, for which the T/C was 93 % of control (dose: 75.0 mg/kg/injection, schedule: Q04DX003 (sc), vehicle: saline with Tween-80); 86 % of control (dose: 150.0 mg/kg/injection, schedule: Q04DX003 (sc), vehicle: saline with Tween-80); 85 % of control under setting [4]; 74 % of control under setting [5]; 83 % of control under setting [6].
With `O=C[C@@H](CO)O[C@H](C=O)n1cnc2c(=O)[nH]cnc21`, the T/C is 71 % of control under setting [7]; 57 % of control under setting [8]; 59 % of control (dose: 400.0 mg/kg/injection, schedule: Q04DX003 (sc), vehicle: suspension in saline); 54 % of control (dose: 800.0 mg/kg/injection, schedule: Q04DX003 (sc), vehicle: suspension in saline).
Regarding `Nc1ccccc1N`, the T/C was 55 % of control (dose: 25.0 mg/kg/injection, schedule: Q01DX010 (sc), vehicle: Klucel (hydroxypropylcellulose) (HPC)); 66 % of control and 75 % of control (dose: 100.0 mg/kg/injection, schedule: Q01DX010 (sc), vehicle: Klucel (hydroxypropylcellulose) (HPC)); 83 % of control (dose: 200.0 mg/kg/injection, schedule: Q01DX010 (sc), vehicle: Klucel (hydroxypropylcellulose) (HPC)).
Turning to `Oc1cc2c3c(c1)c1cc4c(cc1c[n+]3CC2)OCO4`, the T/C was 102 % of control (dose: 25.0 mg/kg/injection, schedule: Q04DX003 (sc), vehicle: water); 124 % of control (dose: 50.0 mg/kg/injection, schedule: Q04DX003 (sc), vehicle: water); 93 % of control (dose: 100.0 mg/kg/injection, schedule: Q04DX003 (sc), vehicle: water); 103 % of control (dose: 200.0 mg/kg/injection, schedule: Q04DX003 (sc), vehicle: water).
